Experiments:
[1] = test system: CREB; test: Western blot of CREB activity (Ser133 phosphorylation) in primary neurons after neurotransmitter ligands, forskolin or H-89; type: cell-based, rat
Source text: With the primary neuronal cultures, we tested the ability of the constructed Boolean network to correctly predict the output activity, following an increase in the concentration of each input molecules. According to the logic equations of the CREB network (1), which provide the on/off state of CREB in response to the on/off states of input neurotransmitters (1), serotonin is the only input activates CREB. To verify this prediction experimentally, we treated primary neurons with equal micromolar concentrations (10 μM) of serotonin, glutamate, dopamine, GABA, and adenosine for 15 minutes and measured the activity of CREB by monitoring Ser133 phosphorylation (14). Receptors of these neurotransmitters are expressed in the primary cortical culture and this concentration is used in the literature to activate these receptors (17-22).
We also tried to verify the biological relevance of the stuck-at-1 and stuck-at-0 fault models used in Abdi et al (1). We tested the effect of serotonin on the activity of CREB when PKA, a highly vulnerable molecule in this network, is either activated (stuck-at-1) or inhibited (stuck-at-0), by forskolin or H-89, respectively. When PKA is stuck-at-1 or 0, the model predicts that serotonin should no longer activate CREB (1). To verify this experimentally, we treated primary neurons with serotonin in the presence or absence of either forskolin or H-89 (FIG. 1E). […] Thus, when the highly vulnerable molecule PKA is stuck-at-1, the network output is not correctly regulated by the input. […] Immunofluorescent analysis of CREB phosphorylation in primary neuron cultures exposed to vehicle, forskolin, or serotonin individually, or to serotonin following treatment with forskolin, was consistent with the results obtained by Western blotting for CREB phosphorylation. The cells were triple labeled with antibodies against Ser133 CREB (as a measure of CREB activity), Map-2 (as a marker that specifically labels neurons), and DRAQ-5 (as a nuclear marker that stains the nucleus of neuronal and normeuronal cells in primary culture). […] Consistent with the Western blot data (FIG. 1E), the effect of serotonin on the activity of CREB in neurons is attenuated, when serotonin was added after treatment with forskolin. […]
Protein extraction, and immunoblot analysis. […] Protein concentration was measured by Bio-Rad's protein assay and spectrometry at 595° A. Equal amounts of total protein were loaded on 4-12% gradient Bis-Tris gels, separated using the NuPAGE system (Invitrogen) and transferred onto nitrocellulose membrane. The membrane was probed with primary and secondary antibodies and signals were detected by chemiluminescence followed by autoradiography. […]

[2] = test system: CREB; test: Immunofluorescent analysis of CREB phosphorylation (Ser133) in primary cortical culture; type: cell-based, rat
Source text: FIG. 6. Immunofluorescent analysis of primary cortical culture following treatment with vehicle, forskolin, serotonin, or serotonin and forskolin. Red represents the phosphorylated CREB (Ser^133) as a measure of CREB activity. Green represents the Map-2 staining as a specific neuronal marker and blue represent DRAQ-5 nuclear staining of all the cells in the primary culture (both neuronal and glial cells). Images were captured with the same confocal parameters for the four different treatment conditions.
We also tried to verify the biological relevance of the stuck-at-1 and stuck-at-0 fault models used in Abdi et al (1). We tested the effect of serotonin on the activity of CREB when PKA, a highly vulnerable molecule in this network, is either activated (stuck-at-1) or inhibited (stuck-at-0), by forskolin or H-89, respectively. When PKA is stuck-at-1 or 0, the model predicts that serotonin should no longer activate CREB (1). To verify this experimentally, we treated primary neurons with serotonin in the presence or absence of either forskolin or H-89 (FIG. 1E). […] Thus, when the highly vulnerable molecule PKA is stuck-at-1, the network output is not correctly regulated by the input. […]

[3] = test system: CREB; details: previous studies (reference 18); cited from earlier work
[4] = test system: CREB; test: Western blot of endogenous CREB Ser133 phosphorylation and total CREB protein in primary cortical neurons after P/Q-type calcium channel or Gαi agonist/antagonist treatment; type: cell-based, rat
Method: We altered the activity or abundance of endogenous L AND/OR P/Q-type calcium channels and Gαi in primary cortical neurons from rats and then assayed for the changes in endogenous CREB activity or abundance (see Methods). We used primary neuronal culture as a model system because it has the most similar CREB signaling network to the in vivo signaling networks of the mammalian brain.
Primary cortical culture. Primary cortical cultures were prepared from brains of embryonic day 17 to 18 Sprague-Dawley rats (Charles River). After trituration of cortical sections with a glass pipette, 2 to 4×10^5 neurons were plated on a coverslip (diameter: 12 mm) precoated with poly d-lysine (BD Biocoat). For biochemical analysis, primary cortical cells were plated in 35 mm dishes precoated with poly d-lysine (˜3×10^6 neurons/dish). Neurons were grown in NEUROBASAL Medium supplemented with 0.5 mM L-glutamine, B27 (2%), and N2 (1%) supplements.
Protein extraction, and immunoblot analysis. Primary neurons were cultured as described. Cells were homogenized in ice cold lysate buffer (0.25 M Tris, pH 7.5) containing protease inhibitors (Protease Inhibitor Cocktail tablets, Boehringer Mannheim) and phosphatase inhibitors (Phosphatase Inhibitor Cocktails I & II, Sigma) and lysed through three cycles of freezing (in liquid nitrogen) and thawing (in 37° C. water bath). Protein concentration was measured by Bio-Rad's protein assay and spectrometry at 595° A. Equal amounts of total protein were loaded on 4-12% gradient Bis-Tris gels, separated using the NuPAGE system (Invitrogen) and transferred onto nitrocellulose membrane. The membrane was probed with primary and secondary antibodies and signals were detected by chemiluminescence followed by autoradiography. The following antibodies were used: anti-CREB antibody (Cell Signaling, 1:1000), anti-phospho Ser^133 CREB antibody (Cell Signaling, 1:1000), anti P/Q type calcium channel antibody (Chemicon, 1:1000), and anti-actin antibody (Sigma, 1:1000).
Analysis of CREB regulation by P/Q-type calcium channels or Gαi. Primary cortical neurons were cultured as described. We followed the methods of Dolmetsch et al. (13) to analyze the effect of calcium channel blockers on CREB activity. We characterized the signaling properties of the endogenous P/Q-type calcium channels by monitoring the endogenous activity and total protein levels of CREB. In order to minimize the effect of other elements of calcium or G protein signaling following neuronal depolarization, all experiments were performed without depolarizing the neurons. Previous time-course studies have shown that short-term Ser^133 phosphorylation of CREB are transient events and prolonged Ser^133 phoaphorylation (more than 40 minutes) is required for transcriptional activity (13, 14, 15). Therefore, in these experiments we analyzed the endogenous Ser^133 phosphorylation and total CREB protein abundance following at least 2 hours treatment with agonist or antagonists of P/Q-type calcium channels and 2 hours treatment with agonist or antagonist of Gαi, ω-Agatoxin IVA (Calbiochem), pertussis toxin (Sigma), and Mas-7 (Calbiochem) were dissolved in the appropriate vehicle and added to the medium. Following the treatment, cortical neurons were harvested, lysed, and subjected to Western blot analysis as described.

[5] = 2 hours treatment, pertussis toxin approximately 0.1 or 0.2 μg/ml, MAS-7 approximately 5 or 10 μM
[6] = long-term (12 h) treatment, approximately 1 μM, vs vehicle
[7] = short-term (2.5 h) treatment, approximately 1 μM, vs vehicle

O=S(=O)(NCCNC/C=C/c1ccc(Br)cc1)c1cccc2cnccc12 [H-89]
serotonin-stimulated activity of CREB under inhibition of PKA ([1]; about 10 μM H-89 30 minutes followed by 15 minutes about 10 μM serotonin): prevents serotonin from stimulating the activity of CREB

NCCc1c[nH]c2ccc(O)cc12 [serotonin]
activity of CREB (Ser133 phosphorylation) ([1]; 10 μM for 15 minutes, primary neurons, vs vehicle): most robust effect | activity of CREB on serotonin treatment following activation of PKA by forskolin, compared to serotonin only ([1]; about 10 μM forskolin 30 minutes followed by 15 minutes about 10 μM serotonin): did not affect the activity of CREB | activity of CREB, individual treatments ([1]; about 10 μM, forskolin 30 minutes, serotonin 15 minutes, primary neurons): activate CREB | activity of CREB (phospho-Ser133 staining) in neuronal and non-neuronal cells ([2]; primary cortical culture, triple labeled with phospho-CREB, Map-2, DRAQ-5): only increased the activity of CREB in the neurons | effect of serotonin on the activity of CREB in neurons when added after forskolin ([2]; serotonin added after treatment with forskolin): attenuated | Ser133 CREB phosphorylation [3]: can induce

pertussis toxin
Ser133 phosphorylation of CREB [4, 5]: increase | abundance of CREB [4, 5]: increase

ω-Agatoxin IVA
abundance of CREB [4, 6]: decreased | phosphorylation of CREB at Ser133 [4, 6]: decreased | phosphorylation of CREB at Ser133 [4, 7]: increased | total abundance of CREB [4, 7]: without changing
